Source: patent US20070123546A1, “2-amino-7,8-dihydro-6H-pyrido[4,3-d]pyrimidin-5-ones” (Chiron Corporation, priority 2005, published 2007)

molecular target: His-tagged N-terminal ATP binding domain (amino acid residues 9-236) of HSP90α (Homo sapiens, UniProt P07900); experiment: HSP90 inhibitor binding potency: TRF competition binding assay; settings: Table 1; competition with biotinylated radicicol
Method in brief: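 Competition against biotinylated radicicol for binding to the His-tagged 9-236 ATP domain of HSP90α: 2 h, room temperature, HEPES/MgCl2/KCl/BSA buffer. Streptavidin capture, then europium-labeled anti-His antibody and enhancement solution; europium counts give IC50.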

Row | IC50 | Compound
1 | < 10 µM | Cc1nc(N)nc2c1C(=O)NC(c1ccc(F)cc1-c1cccnc1)C2 (stereo not drawn) [Compound 28, 2-Amino-7-(4-fluoro-2-pyridin-3-yl-phenyl)-4-methyl-7,8-dihydro-6H-pyrido[4,3-d]pyrimidin-5-one]
2 | < 10 µM | Cc1nc(N)nc2c1C(=O)N[C@@H](c1ccc(F)cc1-c1cccnc1F)C2 [Compound 3, (R)-2-Amino-7-[4-fluoro-2-(2-fluoro-pyridin-3-yl)-phenyl]-4-methyl-7,8-dihydro-6H-pyrido[4,3-d]pyrimidin-5-one]
3 | < 10 µM | Cc1nc(N)nc2c1C(=O)NC(c1ccc(F)cc1-c1cnn(C)c1)C2 (stereo not drawn) [Compound 30, 2-Amino-7-[4-fluoro-2-(1-methyl-1H-pyrazol-4-yl)-phenyl]-4-methyl-7,8-dihydro-6H-pyrido[4,3-d]pyrimidin-5-one]
4 | < 10 µM | COc1cccc(-c2ccccc2[C@H]2Cc3nc(N)nc(C)c3C(=O)N2)n1 [Compound 5, (R)-2-Amino-7-[2-(6-methoxy-pyridin-2-yl)-phenyl]-4-methyl-7,8-dihydro-6H-pyrido[4,3-d]pyrimidin-5-one]

same assay, conditions: Table 2; competition with biotinylated radicicol

Row | IC50 | Compound
5 | < 10 µM | COc1ncc(-c2ccccc2[C@H]2Cc3nc(N)nc(C)c3C(=O)N2)nc1OC [Compound 68]
6 | > 10 µM | Cc1nc(N)nc2c1C(=O)N[C@@H](c1ccccc1Br)C2 [Compound 66, (R)-2-Amino-7-(2-bromo-phenyl)-4-methyl-7,8-dihydro-6H-pyrido[4,3-d]pyrimidin-5-one]
7 | < 10 µM | CCc1nc(N)nc2c1C(=O)N[C@@H](c1ccccc1-c1cncc(OC)n1)C2 [Compound 78, (R)-2-Amino-4-ethyl-7-[2-(6-methoxy-pyrazin-2-yl)-phenyl]-7,8-dihydro-6H-pyrido[4,3-d]pyrimidin-5-one]
8 | < 10 µM | COc1nc(-c2ccccc2[C@H]2Cc3nc(N)nc(C)c3C(=O)N2)cs1 [Compound 67, (R)-2-Amino-7-[2-(2-methoxy-thiazol-4-yl)-phenyl]-4-methyl-7,8-dihydro-6H-pyrido[4,3-d]pyrimidin-5-one]
9 | < 10 µM | COc1ccnc(-c2cc(F)ccc2[C@H]2Cc3nc(N)nc(C)c3C(=O)N2)n1 [Compound 48]
10 | < 10 µM | CCc1nc(N)nc2c1C(=O)N[C@@H](c1ccccc1-c1cccc(OC)n1)C2 [Compound 77, (R)-2-Amino-4-ethyl-7-[2-(6-methoxy-pyndin-2-yl)-phenyl]-7,8-dihydro-6H-pyrido[4,3-d]pyrimidin-5-one]

Second part, the compound before the results:

Row | Compound | IC50
11 | Cc1cc(F)ccc1-c1cc(F)ccc1[C@H]1Cc2nc(N)ncc2C(=O)N1 [Compound 61, (R)-2-Amino-7-(5,4′-difluoro-2′-methyl-biphenyl-2-yl)-7,8-dihydro-6H-pyrido[4,3-d]pyrimidin-5-one] | < 10 µM
12 | CCOc1cncc(-c2cc(F)ccc2[C@H]2Cc3nc(N)ncc3C(=O)N2)n1 [Compound 87, (R)-2-Amino-7-[2-(6-ethoxy-pyrazin-2-yl)-4-fluoro-phenyl]-7,8-dihydro-6H-pyrido[4,3-d]pyrimidin-5-one] | < 10 µM

same assay, conditions: Table 3; competition with biotinylated radicicol

Row | IC50 | Compound
13 | < 10 µM | COc1nc(-c2cc(F)ccc2[C@H]2Cc3nc(N)nc(C)c3C(=O)N2Cc2ccccc2F)cnc1N [Compound 124, (R)-2-Amino-7-[2-(5-amino-6-methoxy-pyrazin-2-yl)-4-fluoro-phenyl]-6-(2-fluoro-benzyl)-4-methyl-7,8-dihydro-6H-pyrido[4,3-d]pyrimidin-5-one]
14 | < 10 µM | COc1ncc(-c2cc(F)ccc2[C@H]2Cc3nc(N)nc(C)c3C(=O)N2CC(C)C)nc1OC [Compound 156, (R)-2-Amino-7-[2-(5,6-dimethoxy-pyrazin-2-yl)-4-fluoro-phenyl]-6-isobutyl-4-methyl-7,8-dihydro-6H-pyrido[4,3-d]pyrimidin-5-one]
15 | > 10 µM | Cc1nc(N)nc2c1C(=O)N(CCCN)[C@@H](c1ccc(F)cc1Br)C2 [Compound 166, (R)-2-Amino-6-(3-amino-propyl)-7-(2-bromo-4-fluoro-phenyl)-4-methyl-7,8-dihydro-6H-pyrido[4,3-d]pyrimidin-5-one]
16 | > 10 µM | Cc1nc(N)nc2c1C(=O)N(CCC(C)C)[C@@H](c1ccc(F)cc1Br)C2 [Compound 148, (R)-2-Amino-7-(2-bromo-4-fluoro-phenyl)-4-methyl-6-(3-methyl-butyl)-7,8-dihydro-6H-pyrido[4,3-d]pyrimidin-5-one]
17 | < 10 µM | COc1nc(-c2cc(F)ccc2[C@H]2Cc3nc(N)nc(C)c3C(=O)N2Cc2ccncc2)cnc1N [Compound 122, (R)-2-Amino-7-[2-(5-amino-6-methoxy-pyrazin-2-yl)-4-fluoro-phenyl]-4-methyl-6-pyridin-4-ylmethyl-7,8-dihydro-6H-pyrido[4,3-d]pyrimidin-5-one]
18 | < 10 µM | COc1cccc(-c2cc(F)ccc2[C@H]2Cc3nc(N)nc(C)c3C(=O)N2Cc2ccccc2Cl)n1 [Compound 125, (R)-2-Amino-6-(2-chloro-benzyl)-7-[4-fluoro-2-(6-methoxy-pyridin-2-yl)-phenyl]-4-methyl-7,8-dihydro-6H-pyrido[4,3-d]pyrimidin-5-one]
19 | < 10 µM | COc1cccc(-c2cc(F)ccc2[C@H]2Cc3nc(N)ncc3C(=O)N2)n1 [Compound 96, (R)-2-Amino-7-[4-fluoro-2-(6-methoxy-pyridin-2-yl)-phenyl]-7,8-dihydro-6H-pyrido[4,3-d]pyrimidin-5-one]
20 | < 10 µM | COc1ncccc1-c1cc(F)ccc1[C@H]1Cc2nc(N)nc(C)c2C(=O)N1Cc1ccccc1 [Compound 135, (R)-2-Amino-6-benzyl-7-[4-fluoro-2-(2-methoxy-pyridin-3-yl)-phenyl]-4-methyl-7,8-dihydro-6H-pyrido[4,3-d]pyrimidin-5-one]
21 | < 10 µM | COc1cccc(-c2cc(F)ccc2[C@H]2Cc3nc(N)nc(C)c3C(=O)N2Cc2ccccc2)n1 [Compound 134, (R)-2-Amino-6-benzyl-7-[4-fluoro-2-(6-methoxy-pyridin-2-yl)-phenyl]-4-methyl-7,8-dihydro-6H-pyrido[4,3-d]pyrimidin-5-one]
22 | < 10 µM | COc1ccc(CN2C(=O)c3c(C)nc(N)nc3C[C@@H]2c2ccc(F)cc2-c2cccc(OC)n2)c(OC)c1 [Compound 119, (R)-2-Amino-6-(2,4-dimethoxy-benzyl)-7-[4-fluoro-2-(6-methoxy-pyridin-2-yl)-phenyl]-4-methyl-7,8-dihydro-6H-pyrido[4,3-d]pyrimidin-5-one]

same assay, conditions: Table 4; competition with biotinylated radicicol

Row | IC50 | Compound
23 | < 10 µM | COc1cncc(-c2scnc2[C@H]2Cc3nc(N)nc(C)c3C(=O)N2)n1 [Compound 186, (R)-2-Amino-7-[5-(6-methoxy-pyrazin-2-yl)-thiazol-4-yl]-4-methyl-7,8-dihydro-6H-pyrido[4,3-d]pyrimidin-5-one]
24 | < 10 µM | CCOc1ccnc(-c2cc(F)ccc2[C@H]2Cc3nc(N)nc(C)c3C(=O)N2)n1 [Compound 193, (R)-2-Amino-7-[2-(4-ethoxy-pyrimidin-2-yl)-4-fluoro-phenyl]-4-methyl-7,8-dihydro-6H-pyrido[4,3-d]pyrimidin-5-one]
25 | < 10 µM | CCOc1cncc(-c2cc(OC)ccc2[C@H]2Cc3nc(N)nc(C)c3C(=O)N2)n1 [Compound 239, (R)-2-Amino-7-[2-(6-ethoxy-pyrazin-2-yl)-4-methoxy-phenyl]-4-methyl-7,8-dihydro-6H-pyrido[4,3-d]pyrimidin-5-one]
26 | < 10 µM | COc1nc(-c2ccccc2[C@H]2Cc3nc(N)nc(C)c3C(=O)N2)ncc1C [Compound 221, (R)-2-Amino-7-[2-(4-methoxy-5-methyl-pyrimidin-2-yl)-phenyl]-4-methyl-7,8-dihydro-6H-pyrido[4,3-d]pyrimidin-5-one]
27 | < 10 µM | CCc1nc(N)nc2c1C(=O)N[C@@H](c1ccccc1-c1cccc(OC)n1)C2 [Compound 198, (R)-2-Amino-4-ethyl-7-[2-(6-methoxy-pyridin-2-yl)-phenyl]-7,8-dihydro-6H-pyrido[4,3-d]pyrimidin-5-one]

The next lines start with the compound.

Row | Compound | IC50
28 | CCc1nc(N)nc2c1C(=O)N[C@@H](c1ccc(F)cc1-c1csc(OC)n1)C2 [Compound 215, (R)-2-Amino-4-ethyl-7-[4-fluoro-2-(2-methoxy-thiazol-4-yl)-phenyl]-7,8-dihydro-6H-pyrido[4,3-d]pyrimidin-5-one] | < 10 µM
29 | COc1nc(-c2cc(F)ccc2[C@H]2Cc3nc(N)ncc3C(=O)N2)ccc1N [Compound 208, (R)-2-Amino-7-[2-(5-amino-6-methoxy-pyridin-2-yl)-4-fluoro-phenyl]-7,8-dihydro-6H-pyrido[4,3-d]pyrimidin-5-one] | < 10 µM
30 | CCOc1nc(-c2cc(F)ccc2[C@H]2Cc3nc(N)ncc3C(=O)N2)cnc1N [Compound 214, (R)-2-Amino-7-[2-(5-amino-6-ethoxy-pyrazin-2-yl)-4-fluoro-phenyl]-7,8-dihydro-6H-pyrido[4,3-d]pyrimidin-5-one] | < 10 µM
